Key:
[1] = test system: osteoblastic cell strain MC3T3-E1; test: Calcified matrix formation (alizarin red) of cultured osteoblastic cell on differentiation medium; assay type: cell-based, mouse
Method: Using an osteoblastic cell strain MC3T3-E1 originating from a mouse skull bone, an action to osteoblactic cell differentiation was checked. MC3T3-E1 cell was cultured on α-MEM (growth medium) containing 5% fetal bovine serum (FBS) and 10 μg/ml gentamicin. When the cell became confluent, the cell was collected using 0.25% trypsin solution, and was subjected to seeding to a 48-well plate at 1×10^4/0.5 mL/well with the growth medium. After 24 hours passed from the cultivation, the culture medium was replaced with a growth medium (differentiation medium) containing 50 μg/mL ascorbic acid, 10 mmol/L β-glycerosphoric acid, and 10 nmol/L dexamethasone. At the same time, CS-A, CS-B, CS-C, CS-E, CS-H or CPS was added to the medium. After 16 days passed from when the medium was replaced with the differentiation medium, a culture supernatant was eliminated, the cell was rinsed by PBS (−), dissolved by 1% Nonidet P-40 (NP-40, registered trademark), and a cell lysate was collected. The cell on a plate was fixed by 15% formalin, a calcified matrix was dyed by 40 mmol/L alizarin red dyeing (pH 4.2)[…], and rinsed by pure water. Alizarin red pigments in the plate were dissolved by 10% formic acid, and light absorption at a wavelength of 415 nm was observed.
An osteoblastic cell strain MC3T3-E1 was cultured on α-MEM (growth medium) containing 5 FBS and 10 μg/mL gentamicin. When the cell became confluent, the cell was collected by 0.25 trypsin solution, and was subjected to seeding to a 96-well plate at 1×10^4/0.2 mL/well with the growth medium. After 24 hours incubation, the culture medium was replaced with a growth medium (differentiation medium) containing 50 μg/mL ascorbic acid, 10 mmol/L β-glycerophosphoric acid, and 10 nmol/L dexamethasone. At the same time, CS-A, CS-C or CS-D dissolved and diluted by a phosphate buffered saline (PBS (−)) was added to the medium. After 10 days passed from when the medium was replaced with the differentiation medium, a culture supernatant was eliminated, the cell was rinsed by PBS (−), and dissolved by 1% NP-40 (registered trademark), and a cell lysate was collected. The cell on the plate was fixed by 15% formalin, a calcified matrix was dyed by 40 mmol/L alizarin red dyeing (pH 4.2) liquid, and then rinsed by pure water. Alizarin red pigments in the plate were dissolved by 10% formic acid, and light absorption at a wavelength of 415 nm was observed.

[2] = test system: osteoblastic cell strain MC3T3-E1; test: Growth of cultured osteoblastic cell (DNA amount, PicoGreen); assay type: cell-based, mouse; settings: MC3T3-E1, differentiation medium, 16 days (FIG. 4)
Method: An osteoblastic cell strain MC3T3-E1 was cultured on α-MEM (growth medium) containing 5% FBS and 10 μg/mL gentamicin. When the cell became confluent, the cell was collected by 0.25% trypsin solution, and was subjected to seeding to a 96-well plate at 4×10^4/0.2 mL/well with the growth medium. After 24 hours incubation, the culture medium was replaced with a growth medium (differentiation medium) containing 50 μg/mL ascorbic acid, 10 mmol/L β-glycerophosphoric acid, and 10 nmol/L dexamethasone. At the same time, CS-A, CS-C, CS-D or CS-E used in the first example and the second example was dissolved and diluted by a phosphate buffered saline (PBS (−)), and then added to the medium. After 16 days passed from when the medium was replaced with the differentiation medium, a culture supernatant was eliminated, the cell was rinsed by PBS (−), and dissolved by 1% NP-40, and a cell lysate was collected.
Regarding a measurement of a DNA amount, PicoGreen dsDNA Quantitation kit (made by Molecular Probes corporation) was used, and a DNA amount was measured from a fluorescence intensity (Ex: wavelength 485 nm, Em: wavelength 535 nm) with a Calf Thymus DNA (Sigma) being as a standard.

MC3T3-E1 cell [3] = test: Growth of osteoblastic cell cultured on calcium phosphate (OCP or HA coating), DNA amount; assay type: cell-based, mouse
Method: (§1) Octacalcium phosphate (OCP) and hydroxyapatite (HA, apaceram, made by pentax corporation) were broken into powders by a mortar, and powders which passed through a stainless mesh (pore size: 53 μm) were used for the test. 1 mg of OCP or HA powders were suspended in 1 mL of distilled water, and added to a 48-well plate 150 μL by 150 μL (0.15 mg/well). It was dried for one night at 80° C. by a dryer, sterilized by 70% ethanol, and used for the test.
(§2) An MC3T3-E1 cell was cultured on α-MEM (growth medium) containing 5% FBS and 10 μg/mL gentamicin. When the cell became confluent, the cell was collected by 0.25 trypsin solution, and was subjected to seeding to a 48-well plate at 8×10^4/0.5 […] with the growth medium. After 24 hours incubation, the culture medium was replaced with a growth medium (differentiation medium) containing 50 μg/mL ascorbic acid, 10 mmol/L β-glycerophosphoric acid, and 10 nmol/L dexamethasone, while at the same time CS-E was added. […] Regarding a measurement of a DNA amount, PicoGreen dsDNA Quantitation kit (made by Molecular Probes corporation) was used, and a DNA amount was measured from a fluorescence intensity (Ex: wavelength 485 nm, Em: wavelength 535 nm) with a Calf Thymus DNA (Sigma) being as a standard.

[4] = test system: osteoblastic cell strain MC3T3-E1; test: Alkaline phosphatase (ALP) activity of cultured osteoblastic cell; assay type: cell-based, mouse; settings: MC3T3-E1, differentiation medium, 8 days, p-NP amount (FIG. 3)
Method: An osteoblastic cell strain MC3T3-E1 was cultured on α-MEM (growth medium) containing 5% FBS and 10 μg/mL gentamicin. When the cell became confluent, the cell was collected by 0.25 trypsin solution, and was subjected to seeding to a 48-well plate at 8×10^4/0.5 mL/well with the growth medium. After 24 hours incubation, the culture medium was replaced with a growth medium (differentiation medium) containing 50 μg/mL ascorbic acid, 10 mmol/L β-glycerophosphoric acid, and 10 nmol/L dexamethasone. At the same time, CS-C or CS-E used in the first example was dissolved and diluted by a phosphate buffered saline (PBS (−)), and then added to the medium. After 8 days passed from when the medium was replaced with the differentiation medium, a culture supernatant was eliminated, the cell was rinsed by PBS (−), and dissolved by 1% NP-40 (registered trademark), and a cell lysate was collected.
Regarding alkaline phosphatase (ALP) activity, a p-nitrophenol (p-NP) amount created by mixing the cell lysate with p-nitrophenylphosphate (Sigma) and by performing incubation on it for 10 minutes at 37° C. was measured at OD 415 nm, and a p-NP amount was calculated from an analytical curve.

[5] = test system: swine knee joint cartilage cell; test: Collagen synthesis of cultured cartilage cell in alginate gel beads (three-dimensional culturing); assay type: cell-based; settings: 100 μg/mL
Source text: A cartilage cell was separated from a swine knee joint cartilage as follow. A posterior leg of an LWD-kind pig about 1-year-old was purchased from SIMODA animal industry limited private company. After a knee joint was exposed, a joint cartilage of a femur was acquired aseptically. Thereafter, a cell originating from a joint cartilage (hereinafter, “cartilage cell”) was separated in accordance with a technique of Mok S. S. et al (J. Biol. Chem., 1994, 269, 33021 to 33027) while modifying some parts of such a technique.
The acquired cartilage was put into DMEM/F-12 culture medium (a culture medium which contained Dulbecco's modified eagle and Ham's F12 at 1:1) containing 0.4% actinase (made by KAKEN pharmaceutical corporation) and 10 μg/mL gentamicin (made by Invitrogen corporation), and processed for 1 hour at 37° C. while being stirred by a stirrer under a condition where 5% of CO2 was present. After the culture medium was eliminated, a culture media containing 0.025% collagenase (made by Roche corporation) and 5% FBS (made by Biological Industries corporation) was added to a residue, and it was digested for 16 hours at 37° C. under the presence of 5% of CO2. After digested, the cell was rinsed, collected by 70 μm cell strainer (made by Becton Dickinson corporation), and a number of cells were measured using a counting chamber. […]

MC3T3-E1 cell [6] = test: Calcification of osteoblastic cell cultured on calcium phosphate (OCP or HA coating); assay type: cell-based, mouse
Method: as §1
as §2, with “medium.” for “medium. After 24 hours incubation, the culture medium was replaced with a growth medium (differentiation medium) containing 50 μg/mL ascorbic acid, 10 mmol/L β-glycerophosphoric acid, and 10 nmol/L dexamethasone, while at the same time CS-E was added.”
Regarding an evaluation of calcification, a calcified matrix produced by the cell on the plate was fixed by 15% formalin, dyed by 40 mmol/L alizarin red dyeing (pH 4.2) liquid, rinsed by deionization water, dissolved by 10% formic acid, and then light absorption was measured.

[7] = 16th day of cultivation, 48-well plate, absorption 415 nm (FIG. 1)
[8] = 10 days, 96-well plate, absorption 415 nm (FIG. 2)

Substance: polysulfated chondroitin sulfate [CPS]
- formation of a calcified matrix dyed by alizarin red [1, 7]: significantly promoted

Substance: chondroitin sulfate B [CS-B]
- formation of a calcified matrix dyed by alizarin red [1, 7]: not observed

Substance: chondroitin sulfate D [CS-D]
- formation of a calcified matrix dyed by alizarin red [1, 8]: significantly promoted
- growth of an osteoblastic cell (DNA amount) [2]: not observed

Substance: chondroitin sulfate H [CS-H]
- formation of a calcified matrix dyed by alizarin red [1, 7]: significantly promoted

Substance: chondroitin sulfate E [CS-E]
- formation of a calcified matrix dyed by alizarin red [1, 7]: significantly promoted
- growth of an osteoblastic cell (DNA amount) (MC3T3-E1 cell [3]; HA coating (FIG. 6B)): not significant but a cell growth promoting action was observed
- growth of an osteoblastic cell (DNA amount) (MC3T3-E1 cell [3]; OCP coating, 16th day of cultivation (FIG. 6A)): significantly promoted
- ALP activity (osteoblastic cell differentiation marker) [4]: significantly enhanced
- growth of an osteoblastic cell (DNA amount) [2]: significantly promoted
- collagen content per twenty alginate gel beads ([5]; 6 days three-dimensional culturing (FIG. 7)): significantly increased
- collagen content per DNA ([5]; 6 days three-dimensional culturing (FIG. 8)): significantly increased
- production of a calcified matrix dyed by alizarin red (MC3T3-E1 cell [6]; HA coating, 12th day of cultivation (FIG. 5B)): promoted production of a calcified matrix
- production of a calcified matrix dyed by alizarin red (MC3T3-E1 cell [6]; OCP coating, 16th day of cultivation (FIG. 5A)): promoted production of a calcified matrix

Substance: Chondroitin sulfate A [CS-A]
- formation of a calcified matrix dyed by alizarin red [1, 7]: not observed
- formation of a calcified matrix dyed by alizarin red [1, 8]: not observed
- growth of an osteoblastic cell (DNA amount) [2]: not observed

Substance: chondroitin sulfate C [CS-C, reference compound]
- formation of a calcified matrix dyed by alizarin red [1, 7]: not observed
- formation of a calcified matrix dyed by alizarin red [1, 8]: not observed
- ALP activity (osteoblastic cell differentiation marker) [4]: not observed
- growth of an osteoblastic cell (DNA amount) [2]: not observed
